For series [1], the species on record is Homo sapiens. Nature of the series: Selectivity index, ratio of IC50 for human recombinant MAO-A to IC50 for human recombinant MAO-B.
The target of series [2] is T1, Amine oxidase [flavin-containing] A (Homo sapiens, UniProt P21397).
T1 sequence (P21397 whole entry): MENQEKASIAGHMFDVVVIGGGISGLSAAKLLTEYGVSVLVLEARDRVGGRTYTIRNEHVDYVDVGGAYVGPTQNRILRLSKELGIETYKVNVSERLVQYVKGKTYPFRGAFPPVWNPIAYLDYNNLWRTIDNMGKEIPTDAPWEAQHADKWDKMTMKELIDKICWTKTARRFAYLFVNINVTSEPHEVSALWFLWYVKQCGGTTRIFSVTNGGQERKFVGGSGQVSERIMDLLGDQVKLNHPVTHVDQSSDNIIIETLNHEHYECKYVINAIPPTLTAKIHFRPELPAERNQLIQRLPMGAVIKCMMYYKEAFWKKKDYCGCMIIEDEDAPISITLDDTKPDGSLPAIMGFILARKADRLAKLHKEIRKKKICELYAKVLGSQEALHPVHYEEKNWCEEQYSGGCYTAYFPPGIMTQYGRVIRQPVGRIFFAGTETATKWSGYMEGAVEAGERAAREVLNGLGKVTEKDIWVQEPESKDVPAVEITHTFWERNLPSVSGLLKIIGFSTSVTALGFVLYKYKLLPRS
As to the kind of experiment: Inhibition of human recombinant MAO-A expressed in baculovirus infected insect cells using kynuramine as substrate after 20 mins by horseradish peroxidase-coupled assay.

In series [3] the target is T2, Amine oxidase [flavin-containing] B (Homo sapiens, UniProt P27338).
T2 sequence (P27338 whole entry): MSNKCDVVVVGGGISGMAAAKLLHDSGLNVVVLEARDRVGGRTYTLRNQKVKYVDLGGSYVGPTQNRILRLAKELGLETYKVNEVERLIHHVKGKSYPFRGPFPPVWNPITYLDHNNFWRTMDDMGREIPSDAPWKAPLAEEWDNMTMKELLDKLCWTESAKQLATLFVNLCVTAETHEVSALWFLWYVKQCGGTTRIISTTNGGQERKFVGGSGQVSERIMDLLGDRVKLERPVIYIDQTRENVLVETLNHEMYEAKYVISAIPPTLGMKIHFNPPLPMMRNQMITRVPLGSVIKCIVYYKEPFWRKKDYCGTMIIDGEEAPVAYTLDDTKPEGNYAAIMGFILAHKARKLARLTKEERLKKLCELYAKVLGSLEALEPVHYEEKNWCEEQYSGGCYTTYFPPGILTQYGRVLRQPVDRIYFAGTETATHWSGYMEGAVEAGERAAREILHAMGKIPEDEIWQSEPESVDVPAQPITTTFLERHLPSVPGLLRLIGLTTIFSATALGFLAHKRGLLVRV
Nature of the series: Inhibition of human recombinant MAO-B expressed in baculovirus infected insect cells using kynuramine as substrate after 20 mins by horseradish peroxidase-coupled assay.

Series [4] has as its target T2, Amine oxidase [flavin-containing] B. Nature of the series: Inhibition of human recombinant MAO-B expressed in baculovirus infected insect cells using kynuramine as substrate after 20 mins by fluorescence spectrophotometry.
For series [5], the target named is T1, Amine oxidase [flavin-containing] A. Nature of the series: Inhibition of human recombinant MAO-A expressed in baculovirus infected insect cells using kynuramine as substrate after 20 mins by fluorescence spectrophotometry.
Series [6] addresses T2, Amine oxidase [flavin-containing] B. As to the kind of experiment: Reversible inhibition of human recombinant MAO-B expressed in baculovirus infected insect cells using kynuramine as substrate at 0.3 uM incubated up to 60 mins prior to substrate addition measured after 15 mins by fluorescence spectrophotometry. The following applies: 0.25 h.
The target is the same in series [7]. As to the kind of experiment: Competitive inhibition of human recombinant MAO-B expressed in baculovirus infected insect cells using kynuramine as substrate by Lineweaver-Burk plot analysis.
In series [8] the target is T1, Amine oxidase [flavin-containing] A. Nature of the series: Reversible inhibition of human recombinant MAO-A expressed in baculovirus infected insect cells using kynuramine as substrate at 0.3 uM incubated up to 60 mins prior to substrate addition measured after 15 mins by fluorescence spectrophotometry. The following applies: 0.25 h.
The target in series [9] is T2, Amine oxidase [flavin-containing] B. Nature of the series: Reversible inhibition of human recombinant MAO-B expressed in baculovirus infected insect cells using kynuramine as substrate at 9.7 uM incubated up to 60 mins prior to substrate addition measured after 15 mins by fluorescence spectrophotometry. The following applies: 0.25 h.
Series [10] deals with T1, Amine oxidase [flavin-containing] A. As to the kind of experiment: Reversible inhibition of human recombinant MAO-A expressed in baculovirus infected insect cells using kynuramine as substrate at 9.7 uM incubated up to 60 mins prior to substrate addition measured after 15 mins by fluorescence spectrophotometry. Particulars: 0.25 h; call rule not given here.

For `Cn1c(=O)c2c(nc(COc3ccc(F)cc3)n2C)n(C)c1=O`, in series [1], the Ratio IC50 was 10. The IC50 in series [2] (read-out: IC50) worked out at 8.22 µM; in series [3], 0.825 µM.
The matching figures for `Cn1c(=O)c2c(nc(COc3cccc(F)c3)n2C)n(C)c1=O`: 8, 13.2 µM and 1.61 µM.
Regarding `Cn1c(=O)c2c(nc(CCSc3cccc(Cl)c3)n2C)n(C)c1=O`, the half-inhibitory concentration (IC50) result in series [2] is “Not Active”; in [3], 5.67 µM.
On to `Cn1c(=O)c2c(nc(CSc3cccc(F)c3)n2C)n(C)c1=O`, for which the Ratio IC50 in series [1] came out at 2. Further, the half-maximal inhibitory concentration (IC50) was 22.3 µM in [4] and 50.1 µM in [5].
On the same counts, the results for `COc1cccc(SCc2nc3c(c(=O)n(C)c(=O)n3C)n2C)c1` are 5, 8.42 µM and 41.3 µM.
On the same counts, the results for `Cn1c(=O)c2c(nc(CSc3ccccc3)n2C)n(C)c1=O` are 3, 23.4 µM and 66.2 µM.
With `Cn1c(=O)c2c(nc(COc3cccc(Br)c3)n2C)n(C)c1=O`, the Ratio IC50 in [1] was found to be 230. The concentration for half-maximal inhibition (IC50) is 34 µM in series [2] (read-out: IC50) and 0.148 µM in series [3]. The “inhibition (INH)” value in series [6], in series [7] and in series [8] was “Active” throughout.
Regarding `Cn1c(=O)c2c(nc(COc3cccc(C(F)(F)F)c3)n2C)n(C)c1=O`, the “inhibition (INH)” value in series [9] and in series [10] was “Active” each time. The Ratio IC50 in series [1] was 7. The IC50 came out at 4.59 µM in series [2] (read-out: IC50) and 0.641 µM in series [3].
Turning to `Cn1c(=O)c2c(nc(CSc3ccc(Br)cc3)n2C)n(C)c1=O`, in [1], the Ratio IC50 amounted to 5. For the same compound, the values for the IC50 in series [4] and in [5] were 4.05 µM and 20.8 µM, respectively.
The matching figures for `CCOc1cccc(SCc2nc3c(c(=O)n(C)c(=O)n3C)n2C)c1`: 2, 18.4 µM and 44.7 µM.
`COc1cccc(OCc2nc3c(c(=O)n(C)c(=O)n3C)n2C)c1`: the half-maximal inhibitory concentration (IC50) entry in series [2] is “Not Active”; in series [3], 1.96 µM.
Regarding `Cn1c(=O)c2c(nc(CSc3ccc(Cl)cc3)n2C)n(C)c1=O`, the Ratio IC50 in series [1] was determined as 5. The half-maximal inhibitory concentration (IC50) in series [4] came out at 6.91 µM; in series [5], 31.6 µM.
`Cc1cccc(OCc2nc3c(c(=O)n(C)c(=O)n3C)n2C)c1`: the Ratio IC50 in series [1] is 15. The 50% inhibitory concentration (IC50) in series [2] (read-out: IC50) is 18.8 µM; in series [3], 1.23 µM.
On the same counts, the results for `Cn1c(=O)c2c(nc(CCSc3ccc(Br)cc3)n2C)n(C)c1=O` are 0.9, 117 µM and 124 µM.
For `Cn1c(=O)c2c(nc(CSc3cccc(Br)c3)n2C)n(C)c1=O`, the Ratio IC50 in series [1] is 5. Also, the values for the 50% inhibitory concentration (IC50) in series [4] and in series [5] were 4.9 µM and 23.8 µM, respectively.
On to `Cc1cccc(SCc2nc3c(c(=O)n(C)c(=O)n3C)n2C)c1`, for which the Ratio IC50 in [1] is 3. In addition, the figures for the IC50 in series [4] and in [5] were 17.9 µM and 51.8 µM, respectively.
With `Cn1c(=O)c2c(nc(COc3ccc(Br)cc3)n2C)n(C)c1=O`, in series [1], the Ratio IC50 came out at 57. Further, the half-inhibitory concentration (IC50) in series [2] (read-out: IC50) is 10.7 µM; in series [3], 0.189 µM.
With `Cn1c(=O)c2c(nc(CCSc3cccc(Br)c3)n2C)n(C)c1=O`, in series [1], the Ratio IC50 was 6. Also, the IC50 in series [2] (read-out: IC50) is 372 µM; in series [3], 64.1 µM.
In the case of `Cn1c(=O)c2c(nc(CSc3cccc(Cl)c3)n2C)n(C)c1=O`, the Ratio IC50 in series [1] came out at 3. Further, the IC50 in series [4] worked out at 6.12 µM; in series [5], 19.4 µM.
Consider `Cn1c(=O)c2c(nc(CCSc3ccc(Cl)cc3)n2C)n(C)c1=O`, for which the Ratio IC50 in series [1] turned out to be 18. The IC50 in series [2] (read-out: IC50) amounted to 142 µM; in [3] it was 7.79 µM.
On the same counts, the results for `Cn1c(=O)c2c(nc(COc3ccccc3)n2C)n(C)c1=O` are 4, 21.1 µM and 5.78 µM.
On the same counts, the results for `Cn1c(=O)c2c(nc(CCSc3ccccc3)n2C)n(C)c1=O` are 1.3, 139 µM and 108 µM.
The matching figures for `Cn1c(=O)c2c(nc(COc3ccc(Cl)cc3)n2C)n(C)c1=O`: 82, 20.4 µM and 0.25 µM.
For the compound `Cn1c(=O)c2c(nc(COc3cccc(Cl)c3)n2C)n(C)c1=O`, the 50% inhibitory concentration (IC50) entry in [2] is “Not Active”; in series [3] it was 0.334 µM.

As usually defined, the IC50 is the concentration that gives 50% inhibition.

The values are drawn from ChEMBL document CHEMBL2086337, “Inhibition of monoamine oxidase by 8-phenoxymethylcaffeine derivatives” (Bioorg Med Chem, 2012).
